Source: patent US11058700B2, “Macrocyclic lactones and uses thereof as modulators of purinergic receptors” (City of Hope, priority 2015, dated 2021)

Tests used:
[1] = test system: TNBC cells; experiment: Extracellular ATP release; assay type: cell-based, mouse, human
Procedure: FIGS. 3A-3G. Dual roles of ATP and purinergic signaling in Ivermectin's killing. FIG. 3A: Depletion of extracellular ATP with Apyrase (2500 μunits/ml) exacerbates killing of 4T1.2 cell by Ivermectin. FIG. 3B: Extracellular Ca^2− and ATP contain Ivermectin-induced cell swelling. 4T1.2 cells were treated with 32 μM Ivermectin for 4 h in the presence of 1 mM EDTA or 2500 μunits/ml Apyrase. FIG. 3C: Ivermectin (0.5-32 μM) and high concentrations of extracellular ATP (0.3-3 mM) synergistically open pannexin-1 channels and permeabilize the membrane on live cells (7AAD-positive dead cells were gated out). 4T1.2 cells were treated for 30 min as indicated in the presence of 7 AAD and 5 μM YOPRO-1. FIG. 3D: Analysis of supernatants from Ivermectin-treated murine and human TNBC cells showing rapid release of ATP followed by its transient depletion. Depletion of extracellular ATP with Apyrase (2500 μunits/ml) was used as a positive control. […]
Extracellular ATP release. […] The cancer cells engineered to stably express the membrane-bound Luciferase were treated with Ivermectin for 30 min-4 h and luminescence was measured in the presence of 2 μM Luciferin. ATP concentration in Ivermectin treated supernatants was measured using ATP determination kit (Life Technologies, A22066) following manufacturers' instructions.

[2] = test system: 4T1.2 cancer cells; experiment: Synergy between Ivermectin and ROS (CompuSyn CI); assay type: cell-based, mouse; details: for CompuSyn CI values: 4T1.2, 24 h/48 h
Procedure: FIGS. 2A-2C. Role of NADPH oxidases-generated ROS. […] 4T1.2 cells were labeled with a ROS detection probe and treated for 1 h with 32 μM Ivermectin in the presence of 1 mM EDTA, 5mM NAC, 5 μM DPI, 2500 μunits/ml Apyrase, 3 mM ATP, and 10 μM KN-62. […] Triangles (▴) indicate significant antagonism CI>1.0. […] 4T1.2 cancer cells were irradiated (10-20 kRad) or treated with H2O2 (10-1000 μM), PTX (0.1-1 μM), or DOX (1-4 μM) and incubated with Ivermectin for 24 h/48 h. Circles (●) indicate significant synergy CI<1.0, see Table 1. Asterisk (*) indicates p<0.05 relative to untreated or Ivermectin alone controls, respectively.
Cell viability. Cancer cells were plated on 96 well flat-bottom plates and allowed to attach overnight. Cells were then pre-incubated with drugs for 1 h and treated with Ivermectin for 4 h. In the case of 24 h and 48 h incubations the cells, Ivermectin and drugs were plated together. […] Following treatment the plates were washed once with PBS and cell viability was measured using the acid phosphatase assay. Briefly, cells were incubated for 1h at 37° C. in 100 μL assay buffer (0.16 M sodium acetate, 0.1% Triton-X-100, supplemented with 4-Nitrophenyl phosphate disodium salt hexahydrate, Sigma Aldrich, at 0.00263 g/ml). Reaction was stopped using 10 μL of 1N sodium hydroxide. Absorption at 405 nm was measured within 10 min using a multi-well plate reader. Mode of cell death and viability of cells in suspension was evaluated using flow cytometry. Briefly, cancer cells were pre-incubated with drugs for 30 min to 1 h, as indicated, treated with Ivermectin for 4 h in 5 ml FACS tubes , washed twice in PBS and stained with PE-conjugated Annexin V and 7AAD (1 μl per 100 μl/200,000 cancer cells) for 15 min.

[3] = test system: 4T1.2 breast cancer cells; experiment: Plasma membrane polarization; assay type: cell-based; details: mouse 4T1.2 cells
Procedure: Plasma membrane polarization. Cancer cells in suspension were treated with various doses of Ivermectin in the presence of 0.5 μM DiBAC4 (3) (Sigma D8189). Treatments were performed in serum free RPMI medium and cells were analyzed by flow cytometry after 1h of incubation. De-/hyper-polarization results in increased/decreased fluorescence in the GFP channel, respectively.

[4] = test system: Calreticulin (CRT) and Mannose-6 Phosphate receptor; experiment: Surface exposure of CRT and Mannose-6 Phosphate receptor; assay type: cell-based, mouse, human
Procedure: FIGS. 6A-6E. Ivermectin induces autophagy. FIG. 6A: Ivermectin induces autophagy in breast cancer cells. MDA-MB-231 GFL-LC3 cells were treated with different doses of Ivermectin for 24 h and formation of green fluorescent puncta was evaluated by confocal fluorescence microscopy. FIG. 6B: Western blot confirming the induction of autophagy in both murine and human breast cancer cells, as evidenced by LC3 lipidation and autophagic degradation of p62(SQSTM1). […] MDA-MB-231 cells (triplicates) were treated with different doses of Ivermectin for up to 24h and surface stained with antibody-specific for the human M6P receptor versus isotype control. Similarly, 4T1.2 and MB231 cells were treated with different doses of Ivermectin for 4-24 h, and were stained with an antibody specific for both human and mouse CRT versus isotype control. Mean fluorescent intensity (MFI) values and ratios versus isotype control were calculated after gating on live/membrane-intact cells. […]
Surface exposure of CRT and Mannose-6 Phosphate receptor. Surface exposure of Calreticulin (CRT) and Mannose-6 Phosphate receptor (CD220) was evaluated by staining with monoclonal antibodies specific for CRT (unconjugated, specific for both mouse and human, Abcam ab22683, and PE-conjugated, specific for human only, Abcam, ab83220) and CD220 (Thermo […]

[5] = test system: murine and human TNBC cells; experiment: Reactive oxygen species; assay type: cell-based, mouse
Procedure: Reactive oxygen and nitrogen species. Cancer cells in suspension were washed with PBS and loaded with 50 μM H2DCFDA (Molecular Probes, Life Technologies, D399) or 5 μM DAF-2 (Cayman Chemical, Catalog #85165) for 30 min at room temperature in the dark. Cells were washed twice with PBS and treated with various doses of Ivermectin in R10 medium. Cells were incubated for 1h in 5 ml FACS tubes at 37° C. and 5% CO2, and immediately analyzed by flow cytometry. Generation of intracellular ROS and NO results in corresponding increases in the GFP fluorescence of the H2DCFDA and DAF-2 probes, respectively.

Structure (SMILES): CC[C@H](C)[C@H]1O[C@]2(CC[C@@H]1C)C[C@@H]1C[C@@H](C/C=C(\C)[C@@H](O[C@H]3C[C@H](OC)[C@@H](O[C@H]4C[C@H](OC)[C@@H](O)[C@H](C)O4)[C@H](C)O3)[C@@H](C)/C=C/C=C3\CO[C@@H]4[C@H](O)C(C)=C[C@@H](C(=O)O1)[C@]34O)O2 [Ivermectin]
- extracellular ATP levels in supernatants [1]: immediate increase in extracellular ATP levels
- synergy with irradiation, H2O2-generated ROS, doxorubicin and paclitaxel ([2]; 4T1.2 cells): synergistic
- CompuSyn CI values ([2]; kRad 15 + Ivermectin 4): .16
- CompuSyn CI values ([2]; kRad 15 + Ivermectin 8): .75
- CompuSyn CI values ([2]; kRad 20 + Ivermectin 4): .94
- CompuSyn CI values ([2]; kRad 20 + Ivermectin 8): .63
- plasma membrane polarization [3]: plasma membrane hyper-polarization
- surface exposure of Calreticulin (CRT) ([4]; 4T1.2 and MB231 cells, 4-24 h): does not significantly impact surface CRT
- plasma membrane exposure of M6P receptors ([4]; MDA-MB-231 cells, up to 24 h): up-regulate plasma membrane exposure of mannose-6-phosphate (M6P) receptors
- generation of ROS [5]: induces generation of ROS
